Source: ChEMBL document CHEMBL5728884, “Kinase inhibitors and uses thereof” (2021)

Biological target: T1, Receptor-interacting serine/threonine-protein kinase 1 (Homo sapiens, UniProt Q13546)
T1 sequence (Q13546 whole entry): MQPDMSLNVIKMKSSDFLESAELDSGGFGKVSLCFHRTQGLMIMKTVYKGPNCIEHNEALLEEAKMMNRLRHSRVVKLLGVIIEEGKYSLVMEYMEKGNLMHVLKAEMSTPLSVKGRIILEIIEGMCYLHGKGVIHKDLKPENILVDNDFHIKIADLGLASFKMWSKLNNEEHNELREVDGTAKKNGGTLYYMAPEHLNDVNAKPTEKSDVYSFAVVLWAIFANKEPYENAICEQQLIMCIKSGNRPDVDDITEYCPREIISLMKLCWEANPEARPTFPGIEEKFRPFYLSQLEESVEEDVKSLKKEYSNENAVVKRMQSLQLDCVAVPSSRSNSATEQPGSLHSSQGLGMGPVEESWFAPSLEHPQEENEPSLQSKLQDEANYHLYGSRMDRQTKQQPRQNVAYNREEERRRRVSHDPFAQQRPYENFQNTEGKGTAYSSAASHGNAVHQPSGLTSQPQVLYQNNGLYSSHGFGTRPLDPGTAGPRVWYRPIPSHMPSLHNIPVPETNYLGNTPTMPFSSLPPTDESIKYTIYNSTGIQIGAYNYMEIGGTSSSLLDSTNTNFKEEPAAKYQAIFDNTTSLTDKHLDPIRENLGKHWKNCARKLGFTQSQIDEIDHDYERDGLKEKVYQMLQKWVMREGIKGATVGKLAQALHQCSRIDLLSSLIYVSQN
Test: Fluorescent Polarization Binding (FP Binding) Assay: Test compounds were serially diluted in DMSO at 100 fold final concentrations in the assay (1% DMSO final). In each well of a 384-well Plate were dispensed 0.1 μL of compound solution (or DMSO for controls) followed by 5 μL of GST-hRIPK1 (8-327) at twice the final concentrations in assay buffer (50 mM HEPES pH 7.5, 10 mM NaCl, 50 mM MgCl2, 0.02% CHAPS, 0.5 mM DTT and 0.01% Pluronic F127). For negative control the enzyme addition was replaced by assay buffer only.After addition of 5 μL of fluorescentlabeled ligand at twice the final concentrations in assay buffer, the plate was incubated at RT for […]. At the end, the binding was measured as FP value with the Envision (PerkinElmer) plate reader using filter for an excitation λ=531 nm FP and an emission λ=595 nm FP (S & P-pol). GST-hRIPK1 (8-327) enzyme was produced via Baculovirus expression.

SMILES	IC50
Cc1nc(N2CCC(F)(C(=O)N3CCOc4c(C#N)cncc4C3)CC2)ncc1F	< 100 nM
CC1(C(=O)N2CCOc3ccncc3C2)CCN(c2ncc(F)cn2)CC1(F)F (configuration not stated)	< 100 nM
